Experimental data as given in ChEMBL document CHEMBL3621165, “Design, Synthesis, and Biological Activity of Sulfonamide Analogues of Antofine and Cryptopleurine as Potent and Orally Active Antitumor Agents” (J Med Chem, 2015).
≈ marks a conversion by molar mass, not a printed value. Calls of active or inactive are those of the source. The rule behind the calls is not given here.

Experiments:
PC-3 [1] = test: Ratio of antofine IC50 to compound IC50 for human PC3 cells; assay type: functional
Mus musculus [2] = test: Overt toxicity in human Caki1 cells xenografted BALB/c nu mouse at 3 mg/kg, po administered 5 times a week for 4 weeks; assay type: organism-based, CAKI-1; conditions: in vivo, 672 h
CAKI-1 [3] = test: Cell cycle arrest in scrambled siRNA transfected human Caki1 cells assessed as accumulation at sub G1 phase at 500 pM after 24 hrs by flow cytometry (reference value: 1.4%); assay type: functional
SNU-638 = test: Ratio of cryptopleurine IC50 to compound IC50 for human SNU638 cells; assay type: functional
[4] = Decrease of cyclin-E expression in human Caki1 cells after 24 hrs by Western blot analysis; assay type: functional, cell-based; conditions: CAKI-1
[5] = Elimination half-life in ICR mouse plasma at 1 mg/kg, iv; assay type: ADME, organism-based; conditions: read-out: beta t1/2 (converted)
A549 = test: Ratio of antofine IC50 to compound IC50 for human A549 cells; assay type: functional
CAKI-1 [6] = test: Cell cycle arrest in wild type human Caki1 cells assessed as accumulation at S phase at 500 pM after 24 hrs by flow cytometry (reference value: 6.8%); assay type: functional
[7] = target: T1, MAP kinase p38 (Homo sapiens) (UniProt O15264+Q15759+Q16539+P53778); test: Activation of p38 in human Caki1 cells assessed as downregulation of N-cadherin at 250 to 1000 pM after 24 hrs by Western blot analysis; assay type: cell-based; conditions: CAKI-1
CAKI-1 [8] = test: Antitumor activity against human Caki1 cells xenografted in BALB/c nu mouse assessed as tumor growth inhibition at 1 mg/kg, po administered 5 times a week for 4 weeks measured after 42 days relative to control; assay type: functional; conditions: CAKI-1, po, read-out: GI
CAKI-1 [9] = test: Cell cycle arrest in wild type human Caki1 cells assessed as accumulation at G2/M phase at 500 pM after 24 hrs by flow cytometry (reference value: 19.1%); assay type: functional
SK-HEP1 [10] = test: Ratio of cryptopleurine IC50 to compound IC50 for human SKHEP1 cells; assay type: functional
Mus musculus [11] = test: Overt toxicity in human Caki1 cells xenografted BALB/c nu mouse at 1 mg/kg, po administered 5 times a week for 4 weeks; assay type: organism-based, CAKI-1; conditions: in vivo, 672 h
[12] = Up regulation of ERK1 expression in human Caki1 cells at 250 to 1000 pM after 24 hrs by Western blot analysis; assay type: functional, cell-based; conditions: CAKI-1
[13] = target: T1, MAP kinase p38 (Homo sapiens); test: Activation of p38 in human Caki1 cells assessed as downregulation of Snail at 250 to 1000 pM after 24 hrs by Western blot analysis; assay type: cell-based; conditions: CAKI-1
CAKI-1 [14] = test: Cell cycle arrest in NNMT siRNA transfected human Caki1 cells assessed as accumulation at G0/G1 phase at 500 pM after 24 hrs by flow cytometry (reference value: 78.4%); assay type: functional
[15] = Decrease of c-myc expression in human Caki1 cells after 24 hrs by Western blot analysis; assay type: functional, cell-based; conditions: CAKI-1
SK-HEP1 [16] = test: Ratio of antofine IC50 to compound IC50 for human SKHEP1 cells; assay type: functional
[17] = target: T1, MAP kinase p38 (Homo sapiens); test: Activation of p38 in human Caki1 cells assessed as upregulation of E-cadherin at 250 to 1000 pM after 24 hrs by Western blot analysis; assay type: cell-based; conditions: CAKI-1
[18] = AUC (0 to infinity) in ICR mouse at 10 mg/kg, po; assay type: ADME, organism-based; design: dose 10 mg/kg, route oral, time infinity; conditions: in vivo
PC-3 [19] = test: Ratio of cryptopleurine IC50 to compound IC50 for human PC3 cells; assay type: functional
[20] = target: T1, MAP kinase p38 (Homo sapiens); test: Activation of p38 in human Caki1 cells assessed as suppression of MMP2 expression at 250 to 1000 pM after 24 hrs by Western blot analysis; assay type: cell-based; conditions: CAKI-1
HCT-116 = test: Ratio of cryptopleurine IC50 to compound IC50 for human HCT116 cells; assay type: functional
Mus musculus [21] = test: Toxicity in human Caki1 cells xenografted BALB/c nu mouse assessed as body weight change at 1 mg/kg, po administered 5 times a week for 4 weeks measured every 2 to 3 days; assay type: organism-based, CAKI-1; conditions: in vivo
CAKI-1 [22] = test: Cell cycle arrest in scrambled siRNA transfected human Caki1 cells assessed as accumulation at S phase at 500 pM after 24 hrs by flow cytometry (reference value: 7.5%); assay type: functional
CAKI-1 [23] = test: Antimetastatic activity in human Caki1 cells assessed as inhibition of wound closure after 24 hrs by inverted microscopy; assay type: functional, cell-based
CAKI-1 [24] = test: Antitumor activity against human Caki1 cells xenografted in BALB/c nu mouse assessed as tumor growth inhibition at 3 mg/kg, po administered 5 times a week for 4 weeks measured after 42 days relative to control; assay type: functional; conditions: CAKI-1, po, read-out: GI
CAKI-1 [25] = test: Cell cycle arrest in human Caki1 cells assessed as accumulation at S phase at 1000 pM after 24 hrs by flow cytometry (reference value: 13.4%); assay type: functional
CAKI-1 [26] = test: Ratio of antofine IC50 to compound IC50 for human Caki1 cells; assay type: functional
[27] = Decrease of cyclin-A2 expression in human Caki1 cells after 24 hrs by Western blot analysis; assay type: functional, cell-based; conditions: CAKI-1
CAKI-1 [28] = test: Antitumor activity against human Caki1 cells xenografted BALB/c-nu mouse assessed as down-regulation of phosphorylated p38 in tumor tissue at 1 to 3 mg/kg, po administered 5 times a week for 4 weeks by Western blot analysis; assay type: functional, organism-based
CAKI-1 [29] = test: Antimetastatic activity in human Caki1 cells assessed as inhibition of cell invasion after 24 hrs using hematoxylin and eosin by microscopy; assay type: functional, cell-based
CAKI-1 [30] = test: Cell cycle arrest in human Caki1 cells assessed as accumulation at sub-G1 phase at 250 pM after 24 hrs by flow cytometry (reference value: 0.8%); assay type: functional
CAKI-1 [31] = test: Cell cycle arrest in human Caki1 cells assessed as accumulation at G0/G1 phase after 24 hrs by flow cytometry; assay type: functional, cell-based
[32] = Cmax in ICR mouse plasma at 10 mg/kg, po; assay type: ADME, organism-based; design: dose 10 mg/kg, route oral
[33] = AUC (0 to infinity) in ICR mouse at 1 mg/kg, iv; assay type: ADME, organism-based; design: dose 1 mg/kg, route intravenous, time infinity; conditions: in vivo
CAKI-1 [34] = test: Antimetastatic activity in human Caki1 cells assessed as inhibition of cell invasion at 200 pM after 24 hrs using hematoxylin and eosin by microscopy; assay type: functional; conditions: CAKI-1, 24 h
[35] = Elimination half-life in ICR mouse plasma at 10 mg/kg, po; assay type: ADME, organism-based; conditions: read-out: beta t1/2 (converted)
[36] = target: c-Jun N-terminal kinase, JNK (Homo sapiens) (UniProt P45983+P53779+P45984); test: Activation of JNK in human Caki1 cells assessed as increase in phosphorylated c-Jun expression at 250 to 1000 pM after 24 hrs by Western blot analysis; assay type: cell-based; conditions: CAKI-1
Mus musculus [37] = test: Toxicity in human Caki1 cells xenografted BALB/c nu mouse assessed as body weight change at 3 mg/kg, po administered 5 times a week for 4 weeks measured every 2 to 3 days; assay type: organism-based, CAKI-1; conditions: in vivo
[38] = Clearance in ICR mouse plasma at 1 mg/kg, iv; assay type: ADME, organism-based
CAKI-1 [39] = test: Cell cycle arrest in human Caki1 cells assessed as accumulation at G2/M phase at 500 pM after 24 hrs by flow cytometry (reference value: 28.9%); assay type: functional
[40] = Solubility of the compound in phosphate buffer at pH 7.4; assay type: physicochemical
CAKI-1 [41] = test: Increase of JNK expression in human Caki1 cells at 250 to 1000 pM after 24 hrs by Western blot analysis; assay type: functional, cell-based

COc1cc2c3c(c4ccc(NS(C)(=O)=O)cc4c2cc1OC)CN1CCCC[C@@H]1C3
Ratio IC50 (PC-3 [1]): 20
Activity (Mus musculus [2]): Non-toxic
Activity (CAKI-1 [3]): 0.3%
Ratio IC50 (SNU-638): 2
Activity [4]: Dose-dependent effect
half-life [5]: 1.2 h
Ratio IC50 (A549): 20
Activity (CAKI-1 [6]): 2.7%
Activity [7]: Active
inhibition in vivo at 1 mg/kg (CAKI-1 [8]): 64.6%
Activity (CAKI-1 [9]): 9.5%
Ratio IC50 (SK-HEP1 [10]): 2
Activity (Mus musculus [11]): Non-toxic
Activity [12]: Active
Activity [13]: Active
Activity (CAKI-1 [14]): 78.6%
Activity [15]: Dose-dependent effect
Ratio IC50 (SK-HEP1 [16]): 20
Activity [17]: Active
AUC(0-inf) [18]: 251 ng·h/mL
Ratio IC50 (PC-3 [19]): 2
Activity [20]: Active
Ratio IC50 (HCT-116): 2
Activity (Mus musculus [21]): Non-toxic
Activity (CAKI-1 [22]): 3.1%
Activity (CAKI-1 [23]): Dose-dependent effect
inhibition in vivo at 3 mg/kg (CAKI-1 [24]): 76%
Activity (CAKI-1 [25]): 7.5%
Ratio IC50 (CAKI-1 [26]): 20
Activity [27]: Dose-dependent effect
Activity (CAKI-1 [28]): Active
inhibition (CAKI-1 [29]): Dose-dependent effect
Activity (CAKI-1 [30]): 1.1%
Activity (CAKI-1 [31]): Dose-dependent effect
Cmax [32]: 78.8 ng/mL
AUC(0-inf) [33]: 84 ng·h/mL
inhibition at 0.0002 µM (CAKI-1 [34]): 90%
half-life [35]: 1.8 h
Activity [36]: Active
Activity (Mus musculus [37]): Non-toxic
clearance [38]: 208 mL/min/kg
Activity (CAKI-1 [39]): 23.6%
solubility [40]: 6.95 µg/mL (≈ 15.8 µM)
Activity (CAKI-1 [41]): Active
